# Patent US20240016924A1, “NEW ADJUVANT TO IMPROVE THE INNATE IMMUNITY” (INSTITUT NATIONAL DE LA SANTÉ ET DE LA RECHERCHE MÉDICALE, priority 2020, published 2024)
# Legend:
# primary HNECs = test: Signaling inhibitors on P1-induced TSLP expression; format: cell-based, human
# Method: The expression of short and long form TSLP was quantified as described (Bjerkan, Schreurs et al. 2015, Dong, Hu et al. 2016). Briefly, total RNA was extracted using Trizol. Five hundred nanograms of RNA were treated with ezDNase Enzyme (Thermo Fisher) to remove genomic DNA, and reverse transcribed into cDNA using the kit SuperScript IV VILO Master Mix according to manufacturer instructions (Thermo Fisher). Quantitative PCR was performed using reported primers (Dong, Hu et al. 2016) and the PowerUp SYBR Green Master Mix according to manufacturer instructions (Thermo Fisher). Reactions were performed in triplicates, with glyceraldehyde-3-phosphate dehydrogenase (GAPDH) as the internal control. Amplification, data acquisition, and analysis were carried out using the LightCycler 480 Software (Roche, Mannheim, Germany). The levels of TSLP mRNA were normalized to the levels of GAPDH using the ΔCt method (Schmittgen and Livak 2008) and were presented as 2-ΔCt values.
# Signaling inhibitors Confluent HNEC cells in 24-well plate were pre-incubated with inhibitors for 1 h at 37° C. prior to P1 treatment. Inhibitors, namely dexamethasone (Dex) a NF-kB and MAPK inhibitor (used at 100 nM), and Cyclosporin A (CsA) a Calcineurin Inhibitor (used at 1.5 μM), were from Invivogen and used at the manufacturer's recommended concentrations. […]
# RPMI 2650 cells = test: TSLP secretion in nasal RPMI 2650 cell culture supernatants (ELISA); format: cell-based, human
# Method: Nasal RPMI 2650 cells (isolated from the human nasal septum, squamous cell carcinoma, ATCC) were grown in MEMα (Minimum Essential Medium α, Thermo Fisher) supplemented with 10% fetal calf serum (FCS, Eurobio, Courtaboeuf, France) and 1% penicillin/streptomycin.
# (§1) TSLP, IL-25/IL-17E, IL-33, IFN-γ, IL-10, IL-12/23p40, IL-4, IL-5, IL-6, IL-13, TNF-α, MMP-9, IL-8/CXCL8, […], MDC/CCL22, TARC/CCL17, APRIL and BAFF were measured in culture supernatants from indicated experiments with custom multiplex Luminex assays (Bio-techne) according to the manufacturer's instructions. Additionally, when indicated TSLP was measured in culture supernatants by enzyme-linked immunosorbent assay (ELISA) with a limit of detection of 8 pg/ml (Thermo Fisher) according to the manufacturer's instructions.
# We first investigate whether P1 induced TSLP secretion in nasal epithelium. Therefore, we cultured human nasal epithelial cells (RPMI 2650) with P1 Glade B for 2-24 hours at 37° C. and analyzed the culture supernatants for TSLP secretion.
# nasal RPMI cells [1] = test: Calcium measurement (Fura-2/AM), nasal RPMI cells; format: cell-based, human; conditions: P1 125 μM vs 2511M, controls at 125 μM, n=3
# Method: (§2) 70-80% confluent RPMI 2650 or HNEC cells in 24-well plate were loaded with […] Fura-2/AM (Molecular Probes) in basal medium without serum/growth factors for 1 hour at 37° C. Cells were washed twice with mammalian saline (Conche, Boulla et al. 2009) and measurements were performed in complete medium supplied with HEPS (10 mM) and CaCl2 (2 mM) as described add (Conche, Boulla et al. 2009). Images were acquired with an inverted fluorescence microscope (Observer Z1, Zeiss, Germany) and analyzed with MetaMorph software (Guichard, Bonilla et al. 2017) Calcium was measured every 5 seconds by video fluorescence imaging. Results were expressed as 340 nm to 380 nm fluorescence ratio and normalized to the baseline, i.e. ratio at time zero was set as 1.
# primary HNEC cells = test: Calcium measurement (Fura-2/AM), primary HNEC cells; format: cell-based, human; conditions: P1 125 μM vs 2511M, controls at 125 μM, n=3
# Method: as §2
# nasal RPMI cells [2] = test: Cytokines and chemokines quantification (Luminex), nasal RPMI cells; format: cell-based, human; conditions: 125 μM, 24 hrs
# Method: as §1
# We next investigated whether, in addition to TSLP, P1 could stimulate epithelial secretion of additional immune factors prone to attract antigen presenting cells (APCs). […] Together with TSLP (Zhou, Xu et al. 2018), this set of immune factors could facilitate recruitment of APCs to the mucosal surface for initiation of an immune response, since CCL20 and CCL2 chemo-attract macrophages and immature dendritic cells (DCs), and MMP-9 degrades the extracellular matrix and facilitates the migration of immune cells in or out the epithelium. Treg cells have IgA-inducing functions and require RA, TGF-b1, IL-10, and TSLP from intestinal epithelial cells and DCs. So, we assumed IL-10 released from either EC or DC may contribute to IgA class switching (Gutzeit, Magri, et al. 2014).
# autologous CD4+ T cells = test: DC-T co-cultures, CD4+ T cell proliferation (CFSE); format: cell-based, human; conditions: peptide-primed eduDCs, 125 μM, 5 days, DC/T 1:5
# Method: Autologous CD4+ T cells were purified from PMBCs by negative selection according to manufacturer instructions (StemCell Technologies, France) (purity>95%)
# DCs and confluent ECs were co-cultured overnight as described above, and DC-EC or eduDC was further incubated with P1 (clade B, 125 μM) or medium for 24 h. Then, DCs were separated and incubated with autologous CD4+ T cells pre-labeled with CFSE (Thermo Fisher) according to the manufacturer's instructions, at a ratio of 1:5 (DC/T). After 5 days of culture, CD4+ T cell proliferation was analyzed by flow cytometry as described (Yeh, Yeh et al. 2013, Qin, Yin et al. 2015) using Phytohaemagglutinin (PHA) (5 μg/mL) as positive control.
# [3] = intranasal immunization, gp140 antigen; Van Roey, Arias et al. 2012; cited from earlier work
# [4] = tested on: CD8-depleted PBMCs cocultured with RPMI 2650 cells; test: In vitro immunization assay with ovalbumin; format: cell-based, human; conditions: OVA alone 10 μg/mL, no adjuvant
# Method: In vitro immunization assay was performed as reported (Jung, Matsumoto et al. 2007) with modifications. Briefly, 1×10^6 CD8-depleted PBMCs (Human CD8 Depletion Cocktail, StemCell Technologies, France) were cocultured for 24 hrs with RPMI 2650 cells ([…]) pre-seeded in 48 well plates for 48 hrs. Then, ovalbumin (OVA, EndoFit Ovalbumin, 10 µg/mL, Invivogen) alone, OVA together with P1 (5 μM, 25 μM, 125 μM), OVA together with P1 mutant (P1mut, 125 μM), or medium were added to in RPMI 1640 medium supplemented with Non-Essential Amino Acids (NEAA solution, Thermo Fisher), IL-4 ([…]), IL-2 (10 UI/mL) and 2-mercaptoethanol (20 μM) for 7 days.
# For the detection of OVA-specific B cells, at indicated time of culture, PMBCs were surface stained with ovalbumin conjugated to fluorescein (OVA-FITC, 20 ug/mL, Thermo), PE-conjugated mouse anti-human CD20 (BD Biosciences, CA, USA), APC-conjugated goat anti-human IgA or donkey anti-human IgG (Jackson ImmunoResearch, PA, USA) as indicated by the manufacturer. Specific labeling was quantified by flow cytometry with a Guava EasyCyte flow cytometer (Merck-Millipore), and analyzed with the dedicated InCyte software, using the following strategy: CD20+ B cells were first gated and cell double positive for OVA-FITC+ and APC-conjugated anti-IgA or anti-IgG were determined as OVA-IgA or IgG-specific B-cell s.
# In vitro immunization assays have been used to produce specific monoclonal antibodies using a defined antigen complemented with an adjuvant (Borrebaeck, Danielsson et al. 1987). Here, we establish a mucosal immunization model adapted from (Jung, Matsumoto et al. 2007, Yeh, Yeh et al. 2013, Wijkhuisen, Savatier et al. 2016) and using mucosal DCs based on our results presented above. OVA was selected as the model antigen. Therefore, human CD8-depleted PBMCs (n=5 independent donors) were cocultured with RPMI 2650 cells for one day to educate DCs, and prior to addition of either medium, OVA, OVA plus P1 mutant (P1mut, 125 μM) or OVA plus P1 (5 μM, 25 μM, 125 μM) for seven more days. OVA-specific B cells were quantified by flow cytometry using FITC-conjugated OVA and anti-CD2O-PE to gate on OVA-specific B cells. The Ig isotype of surface B cell receptor (BCR) was next characterized by APC-conjugated anti-human-IgA or anti-human-IgG. […] Similar results were obtained when B cells were stained with anti-CD19-PE.
molecule,measurement,setting,value
CC(C)CC(=O)N1CCN(C(=O)CCCCCN)CC1 [ENMD-1068],reduction of P1-induced TSLP expression,"primary HNECs; 1 h pre-treatment before P1, CsA 1.5 μM, ENMD-1068 500 μg/mL, n=3",46±24%
same,P1-induced up-regulation of miR-4485-3p,primary HNECs; inhibitor pre-treatment before P1,blocked the up-regulation of miR-4485-3p
SQTQQEKNEQELLALDSWKNLWNWFSITNWLWYIK [P1 Glade C],Induction of TSLP secretion by P1 variants,"RPMI 2650 cells; RPMI nasal cells, 4 hours",failed to induce TSLP secretion
same,extracellular calcium influx (340/380 nm ratio),nasal RPMI cells [1],fails to raise the calcium level significantly
same,extracellular calcium influx (340/380 nm ratio),primary HNEC cells,fails to raise the calcium level significantly
same,"secretion of MMP-9, CCL20, CCL2 and IL-10",nasal RPMI cells [2],"unable to stimulate significant MMP-9, CCL-20 CCL2 or IL-10 production"
same,proliferation of autologous CD4+ T cells,autologous CD4+ T cells,has no effect
SQIQQKKNEQDLLALDKWANLWNWFDISNWLWYIR (Synthetic P1 clade A) [P1 Glade A],Reduction of TSLP secretion compared to clade B P1,"RPMI 2650 cells; 125 uM, p<0.05, n=5",20%
same,Secretion of TSLP,"RPMI 2650 cells; peptide at 125 uM, 4 hours, n=5",41.8 ± 2.6 pg/mL
Thymic stromal lymphopoietin [TSLP],humoral response as mucosal adjuvant,[3],induced a strong humoral response both in serum and at genital level
"ovalbumin (protein, UniProt P01012 2-386, looked up, model antigen, EndoFit Ovalbumin, Invivogen) Ovalbumin: GSIGAASMEFCFDVFKELKVHHANENIFYCPIAIMSALAMVYLGAKDSTRTQINKVVRFDKLPGFGDSIEAQCGTSVNVHSSLRDILNQITKPNDVYSFSLASRLYAEERYPILPEYLQCVKELYRGGLEPINFQTAADQARELINSWVESQTNGIIRNVLQPSSVDSQTAMVLVNAIVFKGLWEKAFKDEDTQAMPFRVTEQESKPVQMMYQIGLFRVASMASEKMKILELPFASGTMSMLVLLPDEVSGLEQLESIINFEKLTEWTSSNVMEERKIKVYLPRMKMEEKYNLTSVLMAMGITDVFSSSANLSGISSAESLKISQAVHAAHAEINEAGREVVGSAEAGVDAASVSEEFRADHPFLFCIKHIATNAVLFFGRCVSP",induction of OVA-specific B cells,[4],failed to induce OVA-specific specific B cells
